Source: PMC11628833 (Acta Pharmaceutica Sinica. B, 2024)

Key:
[1] = target: T1, TLR3 (Homo sapiens, UniProt O15455); experiment: Specificity test in HEK-Blue TLR-overexpressing cells, TLR3; type: cell-based; details: 5 μM S-1, HEK-Blue TLR cells, TLR-specific agonist
T1 sequence (O15455 24-904): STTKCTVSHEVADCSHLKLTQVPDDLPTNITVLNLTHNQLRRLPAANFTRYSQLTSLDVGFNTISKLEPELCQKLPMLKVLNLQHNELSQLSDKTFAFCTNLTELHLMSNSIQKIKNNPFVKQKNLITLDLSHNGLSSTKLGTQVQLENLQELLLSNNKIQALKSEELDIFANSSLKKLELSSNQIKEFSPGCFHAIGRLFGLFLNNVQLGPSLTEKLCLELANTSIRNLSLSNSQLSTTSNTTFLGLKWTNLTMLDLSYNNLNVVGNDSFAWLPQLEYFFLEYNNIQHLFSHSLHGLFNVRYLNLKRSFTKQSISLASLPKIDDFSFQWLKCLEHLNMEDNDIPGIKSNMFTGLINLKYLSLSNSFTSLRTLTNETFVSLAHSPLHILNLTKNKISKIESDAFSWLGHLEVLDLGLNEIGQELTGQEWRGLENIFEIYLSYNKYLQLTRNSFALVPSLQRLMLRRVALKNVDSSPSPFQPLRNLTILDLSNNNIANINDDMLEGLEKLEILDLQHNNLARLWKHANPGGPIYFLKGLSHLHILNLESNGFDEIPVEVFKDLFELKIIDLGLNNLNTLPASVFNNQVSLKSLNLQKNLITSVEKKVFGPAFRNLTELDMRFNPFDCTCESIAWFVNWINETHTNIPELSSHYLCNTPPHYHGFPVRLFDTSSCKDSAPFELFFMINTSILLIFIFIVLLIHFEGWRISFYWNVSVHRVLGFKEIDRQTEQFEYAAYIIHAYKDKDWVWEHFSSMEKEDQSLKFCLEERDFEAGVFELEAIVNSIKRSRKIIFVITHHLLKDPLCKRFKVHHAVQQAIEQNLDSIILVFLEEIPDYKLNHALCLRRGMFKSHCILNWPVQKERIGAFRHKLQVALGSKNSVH

[2] = system: TLR1/2/6; experiment: Specificity test in HEK-Blue TLR-overexpressing cells, TLR1/2/6; type: cell-based, human; details: 5 μM S-1, HEK-Blue TLR cells, TLR-specific agonists
[3] = target: TLR4 (Homo sapiens, UniProt O00206); experiment: Specificity test in HEK-Blue TLR-overexpressing cells, TLR4; type: cell-based; details: 5 μM S-1, HEK-Blue TLR cells, TLR-specific agonist
Sequence of TLR4 (O00206 24-839): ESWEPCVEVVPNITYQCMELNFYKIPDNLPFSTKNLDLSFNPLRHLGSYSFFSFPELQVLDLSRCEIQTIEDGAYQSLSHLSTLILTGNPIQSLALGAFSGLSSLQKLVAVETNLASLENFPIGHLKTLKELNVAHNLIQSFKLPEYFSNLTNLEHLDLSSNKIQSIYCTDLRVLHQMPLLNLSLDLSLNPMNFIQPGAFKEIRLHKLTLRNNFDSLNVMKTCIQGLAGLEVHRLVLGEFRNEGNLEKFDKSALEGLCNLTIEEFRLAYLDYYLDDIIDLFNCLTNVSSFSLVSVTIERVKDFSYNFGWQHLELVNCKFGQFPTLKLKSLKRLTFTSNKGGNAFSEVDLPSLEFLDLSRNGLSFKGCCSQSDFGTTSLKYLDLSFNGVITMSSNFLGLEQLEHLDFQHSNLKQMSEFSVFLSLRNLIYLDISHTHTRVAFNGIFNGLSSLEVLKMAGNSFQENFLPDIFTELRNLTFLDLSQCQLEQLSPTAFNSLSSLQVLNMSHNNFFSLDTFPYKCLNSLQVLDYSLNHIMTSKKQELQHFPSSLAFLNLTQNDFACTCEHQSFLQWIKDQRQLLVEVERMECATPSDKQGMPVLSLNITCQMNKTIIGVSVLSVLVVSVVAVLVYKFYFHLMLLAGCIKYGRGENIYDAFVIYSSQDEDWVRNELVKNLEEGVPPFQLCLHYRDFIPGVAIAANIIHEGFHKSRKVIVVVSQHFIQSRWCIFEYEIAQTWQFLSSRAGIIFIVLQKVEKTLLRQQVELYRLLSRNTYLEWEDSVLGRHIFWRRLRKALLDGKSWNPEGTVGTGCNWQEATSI
Sequence of TLR4 (Q9Y6Y9 17-160 partner limits assumed): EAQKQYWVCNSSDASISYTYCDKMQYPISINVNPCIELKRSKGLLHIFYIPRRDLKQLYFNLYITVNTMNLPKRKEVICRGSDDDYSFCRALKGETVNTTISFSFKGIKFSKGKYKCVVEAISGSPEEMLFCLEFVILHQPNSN

[4] = target: TLR5 (Homo sapiens, UniProt O60602); experiment: Specificity test in HEK-Blue TLR-overexpressing cells, TLR5; type: cell-based; details: 5 μM S-1, HEK-Blue TLR cells, TLR-specific agonist
Sequence of TLR5 (O60602 21-858): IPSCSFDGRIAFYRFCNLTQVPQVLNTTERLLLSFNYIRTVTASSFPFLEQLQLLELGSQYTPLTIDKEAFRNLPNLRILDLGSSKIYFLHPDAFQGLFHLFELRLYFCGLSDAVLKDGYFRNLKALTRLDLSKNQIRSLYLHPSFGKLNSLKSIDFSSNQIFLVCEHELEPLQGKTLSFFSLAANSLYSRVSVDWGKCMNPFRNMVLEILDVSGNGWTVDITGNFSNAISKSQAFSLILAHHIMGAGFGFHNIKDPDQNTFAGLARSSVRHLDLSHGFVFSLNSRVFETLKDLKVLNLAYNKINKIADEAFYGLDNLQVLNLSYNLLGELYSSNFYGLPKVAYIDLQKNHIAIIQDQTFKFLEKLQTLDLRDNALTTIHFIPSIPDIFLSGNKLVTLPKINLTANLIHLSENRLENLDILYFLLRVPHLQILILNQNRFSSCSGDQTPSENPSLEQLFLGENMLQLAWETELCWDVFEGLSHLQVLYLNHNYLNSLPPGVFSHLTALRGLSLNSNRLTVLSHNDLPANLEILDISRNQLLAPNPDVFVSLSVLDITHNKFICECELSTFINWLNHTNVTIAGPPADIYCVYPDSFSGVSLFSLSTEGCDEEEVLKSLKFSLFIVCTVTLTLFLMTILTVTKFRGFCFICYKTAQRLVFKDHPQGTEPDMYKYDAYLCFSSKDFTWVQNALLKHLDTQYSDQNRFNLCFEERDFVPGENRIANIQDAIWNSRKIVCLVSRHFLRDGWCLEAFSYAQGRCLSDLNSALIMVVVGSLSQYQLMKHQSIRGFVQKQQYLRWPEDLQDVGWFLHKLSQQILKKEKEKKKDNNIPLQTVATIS

[5] = target: T2, TLR9 (Homo sapiens, UniProt Q9NR96); experiment: Specificity test in HEK-Blue TLR-overexpressing cells, TLR9; type: cell-based; details: 5 μM S-1, HEK-Blue TLR cells, TLR-specific agonist
T2 sequence (Q9NR96 26-1032): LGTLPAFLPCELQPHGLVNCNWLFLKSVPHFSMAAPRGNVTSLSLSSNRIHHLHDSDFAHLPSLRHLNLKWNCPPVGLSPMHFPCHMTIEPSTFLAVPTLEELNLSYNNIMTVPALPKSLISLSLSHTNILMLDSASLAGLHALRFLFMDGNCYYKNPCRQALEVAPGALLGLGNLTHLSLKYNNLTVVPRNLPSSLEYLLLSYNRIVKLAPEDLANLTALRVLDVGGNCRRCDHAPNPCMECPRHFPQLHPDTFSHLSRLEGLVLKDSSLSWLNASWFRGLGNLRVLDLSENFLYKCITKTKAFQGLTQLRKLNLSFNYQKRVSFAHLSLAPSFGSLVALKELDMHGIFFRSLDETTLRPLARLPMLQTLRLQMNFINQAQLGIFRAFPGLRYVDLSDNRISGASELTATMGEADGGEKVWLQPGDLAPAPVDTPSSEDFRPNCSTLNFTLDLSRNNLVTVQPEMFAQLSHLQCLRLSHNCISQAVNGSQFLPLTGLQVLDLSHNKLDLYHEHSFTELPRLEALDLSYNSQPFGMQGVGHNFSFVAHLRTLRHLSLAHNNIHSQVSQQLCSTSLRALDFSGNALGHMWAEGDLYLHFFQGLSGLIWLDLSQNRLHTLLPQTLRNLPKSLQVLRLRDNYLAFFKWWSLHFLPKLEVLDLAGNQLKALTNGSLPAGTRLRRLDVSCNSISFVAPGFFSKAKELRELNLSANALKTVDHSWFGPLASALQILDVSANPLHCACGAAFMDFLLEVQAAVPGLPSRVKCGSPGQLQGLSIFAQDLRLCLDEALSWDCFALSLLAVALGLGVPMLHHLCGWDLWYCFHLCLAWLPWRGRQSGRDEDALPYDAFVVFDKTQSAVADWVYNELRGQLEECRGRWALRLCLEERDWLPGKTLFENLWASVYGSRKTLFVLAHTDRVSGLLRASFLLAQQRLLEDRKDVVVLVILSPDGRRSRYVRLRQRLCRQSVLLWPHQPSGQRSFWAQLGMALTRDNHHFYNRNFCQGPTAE

inhibition of TLR3 [1]: no obvious inhibition | inhibition of TLR4 [3]: no obvious inhibition | inhibition of TLR5 [4]: no obvious inhibition | inhibition of TLR9 [5]: no obvious inhibition
SMILES: O=C(c1ccc(Cl)cc1)N1CCN(c2ccc([N+](=O)[O-])c3ncccc23)CC1 [Compound S1]
inhibition of TLR1/2/6 [2]: no obvious inhibition
